Assays:
[1] = molecular target: T1, 5-hydroxytryptamine receptor 1A (Homo sapiens, UniProt P08908); assay: Displacement of [3H]8-OH-DPAT from human 5-HT1A receptor transfected in […] cells after 30 mins by liquid scintillation spectrometry; assay type: cell-based
T1 sequence (P08908 whole entry): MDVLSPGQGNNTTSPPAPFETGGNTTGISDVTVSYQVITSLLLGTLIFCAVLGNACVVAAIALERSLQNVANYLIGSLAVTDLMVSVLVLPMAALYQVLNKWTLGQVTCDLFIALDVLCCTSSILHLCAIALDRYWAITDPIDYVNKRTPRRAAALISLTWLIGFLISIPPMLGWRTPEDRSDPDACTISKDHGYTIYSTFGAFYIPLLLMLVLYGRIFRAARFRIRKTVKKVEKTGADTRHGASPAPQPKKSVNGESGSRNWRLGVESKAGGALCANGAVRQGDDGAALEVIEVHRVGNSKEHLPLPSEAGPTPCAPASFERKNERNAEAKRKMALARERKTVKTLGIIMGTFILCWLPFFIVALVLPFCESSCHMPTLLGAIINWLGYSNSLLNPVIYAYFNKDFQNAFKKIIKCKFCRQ

Homo sapiens = organism: Homo sapiens; assay: Selectivity ratio of Ki for human 5HT1A receptor to Ki for human 5HT7 receptor
[2] = molecular target: T2, 5-hydroxytryptamine receptor 7 (Homo sapiens, UniProt P34969); assay: Displacement of [3H]5-HT from human 5HT7 receptor transfected in […] cells after 30 mins by liquid scintillation spectrometry; assay type: cell-based
T2 sequence (P34969 whole entry): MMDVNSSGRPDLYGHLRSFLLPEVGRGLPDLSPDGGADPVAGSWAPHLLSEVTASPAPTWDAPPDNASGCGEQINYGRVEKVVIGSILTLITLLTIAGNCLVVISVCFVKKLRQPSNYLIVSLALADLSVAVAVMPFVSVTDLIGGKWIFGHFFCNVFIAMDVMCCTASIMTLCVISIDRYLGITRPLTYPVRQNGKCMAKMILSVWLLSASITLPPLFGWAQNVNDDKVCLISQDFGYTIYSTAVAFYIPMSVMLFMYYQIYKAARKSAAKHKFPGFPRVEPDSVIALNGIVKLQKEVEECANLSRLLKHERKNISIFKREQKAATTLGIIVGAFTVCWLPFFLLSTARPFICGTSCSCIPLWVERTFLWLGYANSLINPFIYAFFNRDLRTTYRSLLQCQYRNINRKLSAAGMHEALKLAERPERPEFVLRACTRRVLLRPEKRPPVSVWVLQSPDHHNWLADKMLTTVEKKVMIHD

[3] = molecular target: T2, 5-hydroxytryptamine receptor 7; assay: Displacement of [3H]5-HT from human 5HT7 receptor transfected in […] cells ay 1 uM after 30 mins by liquid scintillation spectrometry; assay type: cell-based

Row | SMILES | Ki [1] | Ratio Ki (Homo sapiens) | Ki [2] | inhibition [3]
1 | O=c1oc2ccccc2n1CCCCCCN1CCN(c2ccccc2)CC1 | 3.96 nM | 0.28 | 14.1 nM | 
2 | COc1ccccc1N1CCN(CCCCCn2c(=O)sc3ccccc32)CC1 | 7.13 nM | 1.38 | 5.16 nM | 
3 | O=C1Nc2cc(F)ccc2C1CCCCN1CCN(c2cccc(Cl)c2)CC1 (stereo not drawn) | 6.7 nM |  | 118 nM | 
4 | O=c1oc2ccccc2n1CCCCCCCN1CCN(c2ccccc2)CC1 | 29.8 nM | 0.65 | 45.6 nM | 
5 | COc1ccccc1N1CCN(CCCCCCn2c(=O)sc3ccccc32)CC1 | 0.43 nM | 0.14 | 2.9 nM | 
6 | O=c1sc2ccccc2n1CCCCN1CCN(c2cccc(Cl)c2)CC1 | 6.13 nM | 3.56 | 1.72 nM | 
7 | COc1ccccc1N1CCN(CCCCCCCn2c(=O)sc3ccccc32)CC1 | 0.21 nM | 0.02 | 8.49 nM | 
8 | Cc1ccccc1N1CCN(CCCCn2c(=O)sc3ccccc32)CC1 | 10.4 nM | 10.5 | 0.99 nM | 
9 | COc1ccccc1N1CCN(CCCn2c(=O)[nH]c3ccccc32)CC1 | 40 nM |  | 3.4 nM | 
10 | COc1ccccc1N1CCN(CCCCCCn2c(=O)oc3ccccc32)CC1 | 1.3 nM | 0.11 | 11.7 nM | 
11 | O=C1Cc2ccccc2N1CCCCN1CCN(c2cccc3ccccc23)CC1 | 47 nM |  | 22 nM | 
12 | COc1ccccc1N1CCN(CCCCn2c(=O)sc3ccccc32)CC1 | 24.6 nM | 3.16 | 7.77 nM | 
13 | COc1ccccc1N1CCN(CCCCCCCn2c(=O)oc3ccccc32)CC1 | 0.19 nM | 0.02 | 7.73 nM | 
14 | O=c1sc2ccccc2n1CCCCN1CCN(c2ccccc2)CC1 | 913 nM | 25 | 36.5 nM | 
15 | O=c1sc2ccccc2n1CCCCN1CCN(c2ccc(Cl)cc2)CC1 | 83.3 nM | 1.77 | 46.8 nM | 

Results, then the molecule that gave them:

Row | Ki [1] | Ratio Ki (Homo sapiens) | Ki [2] | inhibition [3] | SMILES
16 | 454 nM |  |  |  | O=c1[nH]c2ccccc2n1CCCCCN1CCN(c2ccc(Cl)cc2)CC1
17 | 19.2 nM | 1.85 | 10.3 nM |  | COc1ccccc1N1CCN(CCCCn2c(=O)oc3ccccc32)CC1
18 | 6.05 nM |  | 9 nM |  | COc1ccccc1N1CCN(CCCCC(=O)NC2CCCc3ccccc32)CC1 (stereo not drawn)
19 | 74.9 nM | 26.4 | 2.84 nM |  | O=c1sc2ccccc2n1CCCCN1CCc2ccccc2C1
20 | 0.27 nM | 0.03 | 7.58 nM |  | O=c1sc2ccccc2n1CCCCCCCN1CCN(c2ccccc2)CC1
21 | 0.91 nM | 0.3 | 2.96 nM |  | O=c1sc2ccccc2n1CCCCCCN1CCN(c2ccccc2)CC1
22 |  |  |  | 92% | O=C1c2cccc3cccc(c23)N1CCCCCN1CCN(c2ccccc2)CC1
23 | 90.3 nM | 3.43 | 26.3 nM |  | O=c1oc2ccccc2n1CCCCN1CCN(c2ccccc2)CC1
24 | 695 nM | 16.6 | 41.9 nM |  | O=c1sc2ccccc2n1CCCCN1CCN(Cc2ccccc2)CC1
25 | 11.9 nM | 2.01 | 5.9 nM |  | COc1ccccc1N1CCN(CCCCCn2c(=O)oc3ccccc32)CC1
26 | 95.7 nM | 4.78 | 20 nM |  | O=c1sc2ccccc2n1CCCCCN1CCN(c2ccccc2)CC1
27 | 19.2 nM | 0.33 | 57.4 nM |  | O=c1oc2ccccc2n1CCCCCN1CCN(c2ccccc2)CC1

— ChEMBL document CHEMBL3351620, “Structure-activity relationships and molecular modeling studies of novel arylpiperazinylalkyl 2-benzoxazolones and 2-benzothiazolones as 5-HT(7) and 5-HT(1A) receptor ligands” (Eur J Med Chem, 2014)
